Consider 68 sequences from the supplement of paper PMC11208160.
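Further: IS621 bridge recombinase in Escherichia coli cells against a fixed T5 target plasmid.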

The nature of the data set: recombinant UMI read abundance after kanamycin selection (control-corrected) (log10(CPM+1)); higher = more efficient recombination; extreme values may be limits of the assay; sequences stand for … in AGTGCAGAGAAAATCGGCCAGTTTTCTCTGCCTGCAGTCCGCATGCCGTGGGACCCCTTGGGTTCTAACCTGTTGCCTAGATTTATGCAGCGGACTGCCTTTCTCCCAAAGTGATAAACCGG…AGGTTGGTTTCACT; site = the 11-nt donor. In a few lines: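 Counts of recombinant UMIs were reported as log10(CPM+1). Before that, they were converted to CPM, averaged over replicates and scaled using control-derived factors. They came from PCR across the donor–target junction after Escherichia coli carrying the pair library and target plasmid was plated on IPTG (0.07 mM) plus kanamycin, or unselected, in two replicates each.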
“GTGCATGCATGGACCGGTTTTCCCGGTAATCCGTATTTGGT (site GTGCATGCTCC)”: the “recombinant UMI read abundance (log10)” value was 0.0111.
Then “GTGCATGCATGGACCGGTTTTCCCGGTAATCCGTATTTGGT (site GTGCATGCTGC)”, with 0.451; and “GTGCATGCATGGACCGGTTTTCCCGGTAATCCGTATTTGGT (site GTGCATGCTTC)”, with 0.0184.
To “GTGCATGCATGGACCGGTTTTCCCGGTAATCCGTATTTGGT (site GTGCATTCTAC)” belongs 0; to “GTGCATGCATGGACCGGTTTTCCCGGTAATCCGTATTTGGT (site GTGCCTGCTAC)”, 1.15.
For “GTGCATGCATGGACCGGTTTTCCCGGTAATCCGTATTTGGT (site GTGCGTGCTAC)”, the “recombinant UMI read abundance (log10)” value worked out at 0.276.
“GTGCATGCATGGACCGGTTTTCCCGGTAATCCGTATTTGGT (site GTGCTTGCTAC)”: the “recombinant UMI read abundance (log10)” value amounted to 0.00578.
Then “GTGCATGCATGGACCGGTTTTCCCGGTAATCCGTATTTGGT (site GTGGATGCTAC)”, with 0.00465; and “GTGCATGCATGGACCGGTTTTCCCGGTAATCCGTATTTGGT (site GTGTATGCTAC)”, with 0.469; and “GTGCATGCATGGACCGGTTTTCCCGGTAATCCGTATTTGGT (site GTTCATGCTAC)”, with 0.448.
Then “GTGCATGCATGGACCGGTTTTCCCGGTAATCCGTATTTGGT (site TTGCATGCTAC)”, with 0.412; and “GTGCGATCATGGACCGGTTTTCCCGGTAATCCGTATTTGAC (site GTGCGATCTGT)”, with 1.92.
With “GTGCGGGCATGGACCGGTTTTCCCGGTAATCCGTATTTGGT (site GTGCGGGCTAC)”, the “recombinant UMI read abundance (log10)” value turned out to be 0.486.
To “GTGCTACCATGGACCGGTTTTCCCGGTAATCCGTATTTGCT (site ATGCTACCTAG)” belongs 0.
To “GTGCTACCATGGACCGGTTTTCCCGGTAATCCGTATTTGCT (site CTGCTACCTAG)” belongs 0; to “GTGCTACCATGGACCGGTTTTCCCGGTAATCCGTATTTGCT (site GTGCTACCTAG)”, 0.0199.
Then “GTGCTACCATGGACCGGTTTTCCCGGTAATCCGTATTTGCT (site TTGCTACCTAG)”, with 0.
For “GTGCTCTCATGGACCGGTTTTCCCGGTAATCCGTATTTGTG (site GTGCTCTCTCA)”, the “recombinant UMI read abundance (log10)” value was 1.28.
Take “GTGCTGCCATGGACCGGTTTTCCCGGTAATCCGTATTTGTG (site GTGCTGCCTCA)”: the “recombinant UMI read abundance (log10)” value worked out at 0.251.
Then “GTGCTGGCATGGACCGGTTTTCCCGGTAATCCGTATTTGGT (site GTGCTGGCTAC)”, with 0.476.
Then “GTGCTTGCATGGACCGGTTTTCCCGGTAATCCGTATTTGGT (site GTGCATGCTAC)”, with 0.0165.
Then “GTGCTTGCATGGACCGGTTTTCCCGGTAATCCGTATTTGGT (site GTGCCTGCTAC)”, with 0.269; and “GTGCTTGCATGGACCGGTTTTCCCGGTAATCCGTATTTGGT (site GTGCGTGCTAC)”, with 0.0221.
In the case of “GTGCTTGCATGGACCGGTTTTCCCGGTAATCCGTATTTGGT (site GTGCTTGCTAC)”, the “recombinant UMI read abundance (log10)” value came out at 1.07.
As for “GTGGAAACATGGACCGGTTTTCCCGGTAATCCGTATTTGCA (site ATGGAAACTTG)”, the “recombinant UMI read abundance (log10)” value came out at 1.42.
Then “GTGGAAACATGGACCGGTTTTCCCGGTAATCCGTATTTGCA (site CTGGAAACTTG)”, with 1.56.
Then “GTGGAAACATGGACCGGTTTTCCCGGTAATCCGTATTTGCA (site GTGGAAACTTG)”, with 2.37.
Then “GTGGAAACATGGACCGGTTTTCCCGGTAATCCGTATTTGCA (site TTGGAAACTTG)”, with 2.14.
“GTGGAAGCATGGACCGGTTTTCCCGGTAATCCGTATTTGTG (site GTGGAAGCTCA)”: the “recombinant UMI read abundance (log10)” value was found to be 2.35.
To “GTGGAAGCATGGACCGGTTTTCCCGGTAATCCGTATTTGTG (site GTGGACGCTCA)” belongs 0.582; to “GTGGAAGCATGGACCGGTTTTCCCGGTAATCCGTATTTGTG (site GTGGAGGCTCA)”, 1.53; to “GTGGAAGCATGGACCGGTTTTCCCGGTAATCCGTATTTGTG (site GTGGATGCTCA)”, 0.605.
In the case of “GTGGAGCCATGGACCGGTTTTCCCGGTAATCCGTATTTGTT (site GTGGAGCCTAA)”, the “recombinant UMI read abundance (log10)” value turned out to be 0.012.
Then “GTGGAGGCATGGACCGGTTTTCCCGGTAATCCGTATTTGTT (site GTGGAGGCTAA)”, with 1.58; and “GTGGAGGCATGGACCGGTTTTCCCGGTAATCCGTATTTGTT (site GTGGAGGCTCA)”, with 0.524; and “GTGGAGGCATGGACCGGTTTTCCCGGTAATCCGTATTTGTT (site GTGGAGGCTGA)”, with 2.66.
To “GTGGAGGCATGGACCGGTTTTCCCGGTAATCCGTATTTGTT (site GTGGAGGCTTA)” belongs 0.938; to “GTGGATGCATGGACCGGTTTTCCCGGTAATCCGTATTTGGT (site GTGAATGCTAC)”, 2.1.
For the sequence “GTGGATGCATGGACCGGTTTTCCCGGTAATCCGTATTTGGT (site GTGCATGCTAC)”, the “recombinant UMI read abundance (log10)” value was determined as 0.00775.
Then “GTGGATGCATGGACCGGTTTTCCCGGTAATCCGTATTTGGT (site GTGGATGCTAC)”, with 2.2; and “GTGGATGCATGGACCGGTTTTCCCGGTAATCCGTATTTGGT (site GTGTATGCTAC)”, with 1.03.
To “GTGGCGCCATGGACCGGTTTTCCCGGTAATCCGTATTTGTA (site GTGGCGCCTTA)” belongs 0.00916; to “GTGGCTCCATGGACCGGTTTTCCCGGTAATCCGTATTTGTT (site GTGGCTCCTAA)”, 0.00981; to “GTGGGTACATGGACCGGTTTTCCCGGTAATCCGTATTTGAC (site GTAGGTACTGT)”, 2.16.
Then “GTGGGTACATGGACCGGTTTTCCCGGTAATCCGTATTTGAC (site GTCGGTACTGT)”, with 0; and “GTGGGTACATGGACCGGTTTTCCCGGTAATCCGTATTTGAC (site GTGGGTACTGT)”, with 2.91; and “GTGGGTACATGGACCGGTTTTCCCGGTAATCCGTATTTGAC (site GTTGGTACTGT)”, with 2.72.
Take “GTGGGTACATGGACCGGTTTTCCCGGTAATCCGTATTTGTT (site GTGGGTACTAA)”: the “recombinant UMI read abundance (log10)” value amounted to 1.15.
Then “GTGGTCGCATGGACCGGTTTTCCCGGTAATCCGTATTTGGC (site GTGGTCGCTGC)”, with 2.91; and “GTGGTGGCATGGACCGGTTTTCCCGGTAATCCGTATTTGTG (site GTGGAGGCTCA)”, with 0.789.
To “GTGGTGGCATGGACCGGTTTTCCCGGTAATCCGTATTTGTG (site GTGGCGGCTCA)” belongs 0.0357; to “GTGGTGGCATGGACCGGTTTTCCCGGTAATCCGTATTTGTG (site GTGGGGGCTCA)”, 0.0222.
For “GTGGTGGCATGGACCGGTTTTCCCGGTAATCCGTATTTGTG (site GTGGTGGCTCA)”, the “recombinant UMI read abundance (log10)” value is 0.992.
On to “GTGTCCGCATGGACCGGTTTTCCCGGTAATCCGTATTTGGC (site GTGTCCGCTGC)”, for which the “recombinant UMI read abundance (log10)” value was 2.26.
To “GTGTGGGCATGGACCGGTTTTCCCGGTAATCCGTATTTGAG (site GTGTGGGCTCT)” belongs 1.21; to “GTGTTACCATGGACCGGTTTTCCCGGTAATCCGTATTTGGT (site GTGTTACCTAC)”, 0.
To “GTGTTATCATGGACCGGTTTTCCCGGTAATCCGTATTTGCT (site GTGTTATCTAG)” belongs 2.87.
Then “GTTACACCATGGACCGGTTTTCCCGGTAATCCGTATTTGGC (site GTTACACCTGC)”, with 0; and “GTTAGAACATGGACCGGTTTTCCCGGTAATCCGTATTTGAC (site GTTAGAACTGA)”, with 0.0146.
Regarding “GTTAGAACATGGACCGGTTTTCCCGGTAATCCGTATTTGAC (site GTTAGAACTGC)”, the “recombinant UMI read abundance (log10)” value amounted to 0.0153.
To “GTTAGAACATGGACCGGTTTTCCCGGTAATCCGTATTTGAC (site GTTAGAACTGG)” belongs 0.
To “GTTAGAACATGGACCGGTTTTCCCGGTAATCCGTATTTGAC (site GTTAGAACTGT)” belongs 1.89.
Regarding “GTTAGAACATGGACCGGTTTTCCCGGTAATCCGTATTTGGA (site GTTAGAACTAC)”, the “recombinant UMI read abundance (log10)” value was determined as 0.00435.
For “GTTAGAACATGGACCGGTTTTCCCGGTAATCCGTATTTGGA (site GTTAGAACTCC)”, the “recombinant UMI read abundance (log10)” value stood at 0.0329.
Then “GTTAGAACATGGACCGGTTTTCCCGGTAATCCGTATTTGGA (site GTTAGAACTGC)”, with 0; and “GTTAGAACATGGACCGGTTTTCCCGGTAATCCGTATTTGGA (site GTTAGAACTTC)”, with 0.178.
Turning to “GTTAGAGCATGGACCGGTTTTCCCGGTAATCCGTATTTGTG (site GTTAGAGCTCA)”, the “recombinant UMI read abundance (log10)” value turned out to be 1.74.
To “GTTAGGACATGGACCGGTTTTCCCGGTAATCCGTATTTGAG (site GTTAGGACTCT)” belongs 1.83.
